From paper PMC8291126, “Functional Characterization of Ecdysis Triggering Hormone Receptors (AgETHR-A and AgETHR-B) in the African Malaria Mosquito, Anopheles gambiae” (Frontiers in Physiology, 2021)

Tests used:
AgETHR-A = test: Calcium mobilization assay (aequorin luminescence) with heterologously expressed AgETHR-A; format: cell-based, Anopheles gambiae; settings: for agonistic activity normalized by the activity of AgETH1 / concentration of maximum response (at the level over) / lowest activating concentration (receptor not activated lower than) / response/sensitivity of AgETHR-A to own ETHs (in words) / response of AgETHR-A (in words): AgETHR-A; for agonistic activity normalized by the activity of AgETH1: CHO cells, normalized to AgETH1; for EC50: AgETHR-A in CHO cells, calcium mobilization, luminescence integrated 20 s, at least three replicates; for concentration of maximum response (at the level over) / lowest activating concentration (receptor not activated lower than) / response/sensitivity of AgETHR-A to own ETHs (in words): dose-response; for response of AgETHR-A (in words): 0.1 and 1 μm
From the text: (§1) We tested different synthetic insect neuropeptides with PRXamide, including four groups: ETH, pyrokinin1/DH, pyrokinin2/PBAN, and CAPA. The following synthetic peptides were utilized to investigate selectivity and sensitivity of each AgETHR-A and AgETHR-B; AgETH1 (SESPGFIKLSKSVPRIa, NEOBiolab, United States), AgETH2 (GDLENFFLKQSKSVPRIa, GenScript United States Inc.), TcETH1 (ENYVLKAAKNVPRIa), TcETH2 (FFMKASKSVPRIa), TcPK1-1 (PGANSGGMWFGPRLa, GenScript United States Inc.), TcPK1-2 ([…]a), TcCAPA-1([…]a, PepMicCo. Ltd., Suzhou, China), TcCAPA-2 (RIGKMVSFPRIa); MsPBAN (TRTRYFSPRLa), Pyrokinin2-1 (HVVNFTPRLa, Biomatik, United States), DmETH1 (DDSSPGFFLKITKNVPRLa) and DmETH2 (GENFAIKNLKTIPRIa).
(§2) The functional analysis of the AgETH receptors was performed based on the previous description with modifications ([Park et al., 2003]; [Kim et al., 2014]; [Jiang et al., 2016]). The expression vector pcDNA 3.1 (+) (Invitrogen, Carlsbad, CA, United States), including the open reading frame (ORF) for each AgETHR-A and AgETHR-B, was transiently transfected into the CHO cells with a codon-optimized human apoaequorin-containing plasmid ([Vernon and Printen, 2002]) by using TransIT®-2020 (Mirus, Madison, WI, United States). […] The Kozak sequence for the mammalian Kozak consensus sequence ‘GCCACC’ at the 5' ends of each ORF for each AgETHR-A and AgETHR-B was […], allowing for successful functional expression. After approximately 24–28 h, transfected cells were harvested and prepared for the calcium mobilization assay by incubating in assay media DMEM/F12, including coelenterazine h (final concentration 5 μm; AAT Bioquest, Sunnyvale, CA, United States). Different concentrations of synthetic neuropeptides, including AgETH1, AgETH2, and ETH-related neuropeptides (PRXamides), were prepared in a 96-well plate, upon which the transfected cells (~15,000 cells in 50 μl) were applied. The value of luminescence, the indicator or calcium mobilization, was integrated over time for 20 s and normalized to the treatment of either 0.1 or 1 μm of each AgETH1 and AgETH2 positive control response and negative control background values.

AgETHR-B = test: Calcium mobilization assay (aequorin luminescence) with heterologously expressed AgETHR-B; format: cell-based, Anopheles gambiae; settings: for agonistic activity normalized by the activity of AgETH2 / concentration of maximum response (at the level over) / lowest activating concentration (receptor not activated lower than) / response/sensitivity of AgETHR-B to own ETHs (in words) / response of AgETHR-B relative to other ETHs (in words): AgETHR-B; for agonistic activity normalized by the activity of AgETH2: CHO cells, normalized to AgETH2; for EC50: AgETHR-B in CHO cells, calcium mobilization, luminescence integrated 20 s, at least three replicates; for higher sensitivity of AgETHR-B than AgETHR-A: AgETHR-B vs. AgETHR-A, calcium mobilization assay; for concentration of maximum response (at the level over) / lowest activating concentration (receptor not activated lower than) / response/sensitivity of AgETHR-B to own ETHs (in words): dose-response; for response of AgETHR-B relative to other ETHs (in words): 0.1 μm
From the text: as §1, §2

TcETHR-B = settings: out of 70 peptides, ref Jiang et al., 2015; cited from earlier work

TRTRYFSPRLa [MsPBAN, synthetic insect neuropeptide with PRXamide]
agonistic activity normalized by the activity of AgETH1 (AgETHR-A; 0.1 μM peptide): -21%
agonistic activity normalized by the activity of AgETH1 (AgETHR-A; 1 μM peptide): -3%
agonistic activity normalized by the activity of AgETH2 (AgETHR-B; 0.1 μM peptide): 0%
agonistic activity normalized by the activity of AgETH2 (AgETHR-B; 1 μM peptide): -2%

SESPGFIKLSKSVPRIa [AgETH1, Anopheles gambiae ecdysis triggering hormone 1, synthetic (NEOBiolab)]
EC50 (AgETHR-A): 127 nM
agonistic activity normalized by the activity of AgETH1 (AgETHR-A; 0.1 μM peptide): 100%
agonistic activity normalized by the activity of AgETH1 (AgETHR-A; 1 μM peptide): 100%
concentration of maximum response (at the level over) (AgETHR-A): over 10 um
lowest activating concentration (receptor not activated lower than) (AgETHR-A): ≥ 3 nm
response/sensitivity of AgETHR-A to own ETHs (in words) (AgETHR-A): dose-dependent responses
response/sensitivity of AgETHR-A to own ETHs (in words) (AgETHR-A; listed as AgETH-1): sensitive
EC50 (AgETHR-B): 4.5 nM
higher sensitivity of AgETHR-B than AgETHR-A (AgETHR-B): 28 times
agonistic activity normalized by the activity of AgETH2 (AgETHR-B; 0.1 μM peptide): 97%
agonistic activity normalized by the activity of AgETH2 (AgETHR-B; 1 μM peptide): 98%
concentration of maximum response (at the level over) (AgETHR-B): over 100 nm
lowest activating concentration (receptor not activated lower than) (AgETHR-B): ≥ 0.1 nm
response/sensitivity of AgETHR-B to own ETHs (in words) (AgETHR-B): dose-dependent responses
response/sensitivity of AgETHR-B to own ETHs (in words) (AgETHR-B; listed as AgETH-1): sensitive

PGANSGGMWFGPRLa [TcPK-1-1, synthetic insect neuropeptide with PRXamide (GenScript)]
agonistic activity normalized by the activity of AgETH1 (AgETHR-A; 0.1 μM peptide): -18%
agonistic activity normalized by the activity of AgETH1 (AgETHR-A; 1 μM peptide): -2%
agonistic activity normalized by the activity of AgETH2 (AgETHR-B; 0.1 μM peptide): 1%
agonistic activity normalized by the activity of AgETH2 (AgETHR-B; 1 μM peptide): -3%

GENFAIKNLKTIPRIa [DmETH2, D. melanogaster ETH]
agonistic activity normalized by the activity of AgETH1 (AgETHR-A; 0.1 μM peptide): -14%
agonistic activity normalized by the activity of AgETH1 (AgETHR-A; 1 μM peptide): 2%
response of AgETHR-A (in words) (AgETHR-A): small or no response
agonistic activity normalized by the activity of AgETH2 (AgETHR-B; 0.1 μM peptide): 83%
agonistic activity normalized by the activity of AgETH2 (AgETHR-B; 1 μM peptide): 102%
response of AgETHR-B relative to other ETHs (in words) (AgETHR-B): relatively lower responses

HVVNFTPRLa [Pyrokinin2-1, synthetic insect neuropeptide with PRXamide (Biomatik)]
agonistic activity normalized by the activity of AgETH1 (AgETHR-A; 0.1 μM peptide): -21%
agonistic activity normalized by the activity of AgETH1 (AgETHR-A; 1 μM peptide): -4%
agonistic activity normalized by the activity of AgETH2 (AgETHR-B; 0.1 μM peptide): 1%
agonistic activity normalized by the activity of AgETH2 (AgETHR-B; 1 μM peptide): -1%

FFMKASKSVPRIa [TcETH2, T. castaneum ETH]
agonistic activity normalized by the activity of AgETH1 (AgETHR-A; 0.1 μM peptide): 57%
agonistic activity normalized by the activity of AgETH1 (AgETHR-A; 1 μM peptide): 86%
response of AgETHR-A (in words) (AgETHR-A): responded
agonist activity (in words) (TcETHR-B): agonist activity
agonistic activity normalized by the activity of AgETH2 (AgETHR-B; 0.1 μM peptide): 109%
agonistic activity normalized by the activity of AgETH2 (AgETHR-B; 1 μM peptide): 107%

DDSSPGFFLKITKNVPRLa [DmETH1, D. melanogaster ETH]
agonistic activity normalized by the activity of AgETH1 (AgETHR-A; 0.1 μM peptide): 138%
agonistic activity normalized by the activity of AgETH1 (AgETHR-A; 1 μM peptide): 102%
response of AgETHR-A (in words) (AgETHR-A): responded
agonistic activity normalized by the activity of AgETH2 (AgETHR-B; 0.1 μM peptide): 105%
agonistic activity normalized by the activity of AgETH2 (AgETHR-B; 1 μM peptide): 98%

EPKEPKRNKLASVYALTPSLRVa [TcCAPA-1, synthetic insect neuropeptide, CAPA (PepMicCo)]
agonistic activity normalized by the activity of AgETH1 (AgETHR-A; 0.1 μM peptide): -22%
agonistic activity normalized by the activity of AgETH1 (AgETHR-A; 1 μM peptide): -4%
agonistic activity normalized by the activity of AgETH2 (AgETHR-B; 0.1 μM peptide): 0%
agonistic activity normalized by the activity of AgETH2 (AgETHR-B; 1 μM peptide): -2%

GDLENFFLKQSKSVPRIa [AgETH2, Anopheles gambiae ecdysis triggering hormone 2, synthetic (GenScript)]
EC50 (AgETHR-A): 703 nM
agonistic activity normalized by the activity of AgETH1 (AgETHR-A; 0.1 μM peptide): 24%
agonistic activity normalized by the activity of AgETH1 (AgETHR-A; 1 μM peptide): 69%
concentration of maximum response (at the level over) (AgETHR-A): over 100 um
lowest activating concentration (receptor not activated lower than) (AgETHR-A): ≥ 10 nm
response/sensitivity of AgETHR-A to own ETHs (in words) (AgETHR-A): dose-dependent responses
response/sensitivity of AgETHR-A to own ETHs (in words) (AgETHR-A; listed as AgETH-2): sensitive
EC50 (AgETHR-B): 2.2 nM
higher sensitivity of AgETHR-B than AgETHR-A (AgETHR-B): 320 times
agonistic activity normalized by the activity of AgETH2 (AgETHR-B; 0.1 μM peptide): 100%
agonistic activity normalized by the activity of AgETH2 (AgETHR-B; 1 μM peptide): 100%
concentration of maximum response (at the level over) (AgETHR-B): over 100 nm
lowest activating concentration (receptor not activated lower than) (AgETHR-B): ≥ 0.03 nm
response/sensitivity of AgETHR-B to own ETHs (in words) (AgETHR-B): dose-dependent responses
response/sensitivity of AgETHR-B to own ETHs (in words) (AgETHR-B; listed as AgETH-2): sensitive

RIGKMVSFPRIa [TcCAPA-2, synthetic insect neuropeptide, CAPA]
agonistic activity normalized by the activity of AgETH1 (AgETHR-A; 0.1 μM peptide): -24%
agonistic activity normalized by the activity of AgETH1 (AgETHR-A; 1 μM peptide): -4%
agonistic activity normalized by the activity of AgETH2 (AgETHR-B; 0.1 μM peptide): 0%
agonistic activity normalized by the activity of AgETH2 (AgETHR-B; 1 μM peptide): 2%

TPHESSVPNERNDDSKETYFWFGPRLa [TcPK-1-2, synthetic insect neuropeptide with PRXamide]
agonistic activity normalized by the activity of AgETH1 (AgETHR-A; 0.1 μM peptide): -13%
agonistic activity normalized by the activity of AgETH1 (AgETHR-A; 1 μM peptide): -3%
agonistic activity normalized by the activity of AgETH2 (AgETHR-B; 0.1 μM peptide): 1%
agonistic activity normalized by the activity of AgETH2 (AgETHR-B; 1 μM peptide): -2%

ENYVLKAAKNVPRIa [TcETH1, T. castaneum ETH]
agonistic activity normalized by the activity of AgETH1 (AgETHR-A; 0.1 μM peptide): -11%
agonistic activity normalized by the activity of AgETH1 (AgETHR-A; 1 μM peptide): 32%
response of AgETHR-A (in words) (AgETHR-A): small or no response
agonist activity (in words) (TcETHR-B): agonist activity
agonistic activity normalized by the activity of AgETH2 (AgETHR-B; 0.1 μM peptide): 81%
agonistic activity normalized by the activity of AgETH2 (AgETHR-B; 1 μM peptide): 104%
response of AgETHR-B relative to other ETHs (in words) (AgETHR-B): relatively lower responses
